In ChEMBL document CHEMBL1201862, “PubChem BioAssay data set” (2004):
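48-hour exposure; five concentrations; linearly interpolated endpoints. Abbreviation: GI50, concentration required for 50% inhibition of growth.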 Calls of active or inactive are those of the source. Cut-off read from the data, not from the text of the source: active = GI50 up to about 1.1 µM and inactive = higher.

Assays:
Experiment in all cases: DTP human tumour cell line panel, 48 h
[1] = tested on: TK-10
[2] = tested on: KM12
[3] = tested on: UO-31
[4] = tested on: ACHN
[5] = tested on: SN12C
[6] = tested on: MDA-N
[7] = tested on: RPMI-8226
[8] = tested on: SR
[9] = tested on: HCT-116
[10] = tested on: OVCAR-8
[11] = tested on: MOLT-4
[12] = tested on: UACC-257
[13] = tested on: M14
[14] = tested on: NCI-H226
[15] = tested on: HL-60
[16] = tested on: NCI/ADR-RES
[17] = tested on: HT-29
[18] = tested on: HOP-62
[19] = tested on: PC-3

Measured: GI50

CCC(c1ccc(N(C)C)cc1)C1NC(=S)NC1=O (stereo not drawn)
inactive: [1] 85.5 µM | [2] 62.7 µM | [3] 96.8 µM | [4] > 100 µM | [5] > 100 µM | [6] 59.7 µM | [7] 46 µM | [8] 8.11 µM | [9] 47 µM | [10] > 100 µM | [11] 30.7 µM | [12] > 100 µM | [13] 74.8 µM | [14] 87.3 µM | [15] 17.5 µM | [16] > 100 µM | [17] 57.1 µM

CC(=O)OC12C3C4C1C1C2C3C41OC(C)=O (stereo not drawn)
inactive: [1] > 100 µM | [2] > 100 µM | [3] > 100 µM | [4] > 100 µM | [5] > 100 µM | [7] > 100 µM | [8] > 100 µM | [9] > 100 µM | [10] > 100 µM | [11] > 100 µM | [12] > 100 µM | [18] > 100 µM | [19] > 100 µM | [13] > 100 µM | [14] > 100 µM | [15] > 100 µM | [16] > 100 µM | [17] > 100 µM

CCCCCC/C=C/C#CCCCCCCCC(=O)O
inactive: [1] > 100 µM | [2] > 100 µM | [4] > 100 µM | [5] > 100 µM | [6] > 100 µM | [7] > 100 µM | [9] > 100 µM | [10] > 100 µM | [11] 78.2 µM | [12] > 100 µM | [19] > 100 µM | [13] > 100 µM | [14] > 100 µM | [15] > 100 µM | [16] > 100 µM | [17] > 100 µM

CC(=O)OC1=c2ccccc2=C(O)C2C1C=NN2C(C)=O (stereo not drawn)
inactive: [1] > 100 µM | [2] > 100 µM | [3] > 100 µM | [4] > 100 µM | [5] > 100 µM | [6] > 100 µM | [7] > 100 µM | [9] > 100 µM | [10] > 100 µM | [11] > 100 µM | [12] > 100 µM | [18] > 100 µM | [19] > 100 µM | [13] > 100 µM | [14] > 100 µM | [15] > 100 µM | [16] > 100 µM | [17] > 100 µM

CC(C)[Si](Oc1ccc(CC2N(C(=O)c3ccc([N+](=O)[O-])cc3)C(CCc3ccccc3)CC2(C)C=O)cc1)(C(C)C)C(C)C (stereo not drawn)
inactive: [1] > 100 µM | [3] > 100 µM | [4] > 100 µM | [7] > 100 µM | [8] 2.58 µM | [10] 13.6 µM | [12] > 100 µM | [18] 7.57 µM | [19] > 100 µM | [14] 15.5 µM

N#CC(N)c1ccc(OCCCCCCCCCCOc2ccc(C(N)C#N)cc2)cc1 (stereo not drawn)
inactive: [1] > 100 µM | [2] > 100 µM | [3] > 100 µM | [4] > 100 µM | [5] > 100 µM | [6] > 100 µM | [9] 80 µM | [10] 44.3 µM | [11] 18.6 µM | [12] > 100 µM | [19] > 100 µM | [13] > 100 µM | [14] > 100 µM | [15] 52.1 µM | [16] 27.8 µM | [17] > 100 µM

Cc1ccc(C2c3c(n(C)c(=O)n(C)c3=O)OC(N(C)C)(N(C)C)C2(F)F)cc1 (stereo not drawn)
inactive: [1] > 100 µM | [2] > 100 µM | [3] > 100 µM | [4] > 100 µM | [7] > 100 µM | [9] > 100 µM | [11] > 100 µM | [12] > 100 µM | [18] > 100 µM | [19] > 100 µM | [13] > 100 µM | [14] > 100 µM | [16] > 100 µM

COc1ccc(/N=C2\S/C(=N\C(=N\c3ccccc3)SCc3ccccc3)N(c3ccccc3)\C2=N/c2ccc(OC)cc2)cc1
inactive: [1] > 100 µM | [2] > 100 µM | [3] > 100 µM | [5] > 100 µM | [6] > 100 µM | [7] > 100 µM | [8] > 100 µM | [9] > 100 µM | [10] > 100 µM | [11] > 100 µM | [12] > 100 µM | [18] > 100 µM | [19] > 100 µM | [13] 72.1 µM | [14] > 100 µM | [15] > 100 µM | [17] > 100 µM

Cc1cn(CCCC2=NCCCN2)c(=O)[nH]c1=O
inactive: [1] > 100 µM | [2] > 100 µM | [3] > 100 µM | [4] > 100 µM | [5] > 100 µM | [6] > 100 µM | [7] 79.1 µM | [9] > 100 µM | [10] > 100 µM | [11] > 100 µM | [12] > 100 µM | [18] > 100 µM | [19] > 100 µM | [13] > 100 µM | [14] > 100 µM | [16] > 100 µM | [17] > 100 µM

COC1=CC2(C=CC1=O)c1cc(OC)c(OC)cc1CCN2C(=O)c1ccccc1 (stereo not drawn)
inactive: [1] > 100 µM | [2] > 100 µM | [3] 97.9 µM | [4] > 100 µM | [5] > 100 µM | [7] > 100 µM | [9] > 100 µM | [10] > 100 µM | [11] > 100 µM | [12] > 100 µM | [13] > 100 µM | [14] > 100 µM | [17] > 100 µM

CC1OC(=O)c2ccccc2NC1=O (stereo not drawn)
inactive: [1] > 100 µM | [2] > 100 µM | [3] > 100 µM | [4] > 100 µM | [5] > 100 µM | [7] > 100 µM | [8] > 100 µM | [9] > 100 µM | [10] > 100 µM | [11] > 100 µM | [12] > 100 µM | [18] > 100 µM | [19] > 100 µM | [13] > 100 µM | [14] > 100 µM | [15] > 100 µM | [16] > 100 µM | [17] > 100 µM

CN(C(=O)C1CCCCCC1=O)c1ccccc1Cl (stereo not drawn)
inactive: [1] > 100 µM | [2] > 100 µM | [3] > 100 µM | [4] > 100 µM | [5] > 100 µM | [7] > 100 µM | [9] > 100 µM | [10] > 100 µM | [11] > 100 µM | [12] > 100 µM | [18] > 100 µM | [13] > 100 µM | [14] > 100 µM | [16] > 100 µM | [17] > 100 µM
